{"source": "patent US10913744B2", "about": "“LRRK2 inhibitors and methods of making and using the same” (Dana-Farber Cancer Institute, Inc., priority 2015, dated 2021)", "key": {"[1]": {"molecular_target": "GST-LRRK2(1,326-2,517) wild-type (Homo sapiens (Human), UniProt Q5S007)", "test": "Nictide peptide kinase assay, 100 μM ATP", "type": "biochemical", "conditions": "20 μM Nictide", "description": "(§1) Assay procedures are further discussed in Section 4 herein.\n(§2) Samples were washed extensively and the incorporation of [γ-32P]ATP into Nictide was quantified by Cerenkov counting. IC50 values were calculated with GraphPad Prism using non-linear regression analysis."}, "[2]": {"molecular_target": "GST-LRRK2[A2016T](1326-2517) (Homo sapiens (Human), UniProt Q5S007, A2016T)", "test": "Nictide peptide kinase assay, 100 μM ATP", "type": "biochemical", "conditions": "20 μM Nictide", "description": "as §1, §2"}, "[3]": {"molecular_target": "GST-LRRK2[G2019S + A2016T](1,326-2,517) (Homo sapiens (Human), UniProt Q5S007, A2016T/G2019S)", "test": "Nictide peptide kinase assay, 100 μM ATP", "type": "biochemical", "conditions": "20 μM Nictide", "description": "as §1, §2"}, "[4]": {"molecular_target": "GST-LRRK2[G2019S](1,326-2,527) (Homo sapiens (Human), UniProt Q5S007, G2019S)", "test": "Nictide peptide kinase assay, 100 μM ATP", "type": "biochemical", "conditions": "20 μM Nictide", "description": "as §1, §2"}, "[5]": {"molecular_target": "ACVR2B (Homo sapiens (Human), UniProt Q13705)", "test": "KinomeScan", "type": "binding", "conditions": "1 uM"}, "[6]": {"molecular_target": "CDK2 (Homo sapiens (Human), UniProt P24941)", "test": "KinomeScan", "type": "binding", "conditions": "1 uM"}, "[7]": {"molecular_target": "EGFR (E746-A750del) (Homo sapiens (Human), UniProt P00533, DEL746-750)", "test": "KinomeScan", "type": "binding", "conditions": "1 uM"}, "[8]": {"molecular_target": "EGFR (S752-I759del) (Homo sapiens (Human), UniProt P00533, DEL752-759)", "test": "KinomeScan", "type": "binding", "conditions": "1 uM"}, "[9]": {"molecular_target": "MARK4 (Homo sapiens (Human), UniProt Q96L34)", "test": "KinomeScan", "type": "binding", "conditions": "1 uM"}, "[10]": {"molecular_target": "MST1 (Homo sapiens (Human), UniProt Q13043)", "test": "KinomeScan", "type": "binding", "conditions": "1 uM"}, "[11]": {"molecular_target": "QSK (Homo sapiens (Human), UniProt Q9Y2K2)", "test": "KinomeScan", "type": "binding", "conditions": "1 uM"}, "[12]": {"molecular_target": "ULK1 (Homo sapiens (Human), UniProt O75385)", "test": "KinomeScan", "type": "binding", "conditions": "1 uM"}, "[13]": {"molecular_target": "TAO1 (Homo sapiens (Human), UniProt Q7L7X3)", "sequence (Q7L7X3 whole entry)": "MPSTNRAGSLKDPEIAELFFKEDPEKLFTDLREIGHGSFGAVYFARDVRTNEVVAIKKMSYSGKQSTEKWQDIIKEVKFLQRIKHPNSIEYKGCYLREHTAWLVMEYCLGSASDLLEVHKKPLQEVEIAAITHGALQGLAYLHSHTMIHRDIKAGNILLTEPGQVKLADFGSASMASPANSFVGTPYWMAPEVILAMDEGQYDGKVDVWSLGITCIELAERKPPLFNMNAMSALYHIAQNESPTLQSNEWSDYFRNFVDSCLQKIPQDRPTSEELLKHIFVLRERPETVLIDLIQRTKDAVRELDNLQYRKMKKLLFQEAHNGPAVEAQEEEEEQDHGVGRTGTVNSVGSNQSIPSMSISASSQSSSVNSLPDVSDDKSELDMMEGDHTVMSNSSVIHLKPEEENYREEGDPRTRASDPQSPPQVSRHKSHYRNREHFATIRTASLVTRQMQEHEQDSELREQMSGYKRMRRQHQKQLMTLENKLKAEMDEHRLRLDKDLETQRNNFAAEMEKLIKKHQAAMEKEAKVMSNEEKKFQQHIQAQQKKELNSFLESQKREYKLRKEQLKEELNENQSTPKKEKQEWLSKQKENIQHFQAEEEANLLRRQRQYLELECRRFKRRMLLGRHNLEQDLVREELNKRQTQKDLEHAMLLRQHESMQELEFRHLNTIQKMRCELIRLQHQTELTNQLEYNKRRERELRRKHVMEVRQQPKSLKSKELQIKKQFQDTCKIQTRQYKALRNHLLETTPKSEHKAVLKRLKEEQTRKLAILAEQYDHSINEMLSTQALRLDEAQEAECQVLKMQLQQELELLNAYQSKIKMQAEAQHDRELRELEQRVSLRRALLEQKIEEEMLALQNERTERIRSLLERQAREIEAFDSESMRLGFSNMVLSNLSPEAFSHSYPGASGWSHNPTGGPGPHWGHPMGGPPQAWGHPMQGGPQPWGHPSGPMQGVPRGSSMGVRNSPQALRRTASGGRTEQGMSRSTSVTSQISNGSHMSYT", "test": "Dundee profiling"}, "[14]": {"test_system": "AMPK", "test": "Dundee profiling"}, "[15]": {"molecular_target": "ERK1 (Homo sapiens (Human), UniProt P27361)", "sequence (P27361 whole entry, looked up, species assumed)": "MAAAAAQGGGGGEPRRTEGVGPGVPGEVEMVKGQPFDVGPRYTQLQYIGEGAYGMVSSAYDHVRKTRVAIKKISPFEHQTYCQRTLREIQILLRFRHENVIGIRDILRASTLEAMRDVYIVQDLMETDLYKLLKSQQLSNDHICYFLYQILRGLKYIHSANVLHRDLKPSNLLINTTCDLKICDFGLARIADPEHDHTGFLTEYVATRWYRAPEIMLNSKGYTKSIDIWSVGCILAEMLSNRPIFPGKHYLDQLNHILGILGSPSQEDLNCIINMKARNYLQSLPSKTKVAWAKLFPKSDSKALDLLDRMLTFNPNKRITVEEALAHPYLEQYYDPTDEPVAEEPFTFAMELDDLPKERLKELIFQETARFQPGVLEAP", "test": "Dundee profiling"}, "[16]": {"molecular_target": "CDK9-Cyclin T1 (Homo sapiens (Human), UniProt P50750)", "test": "Dundee profiling"}, "[17]": {"molecular_target": "EF2K (Homo sapiens (Human), UniProt O00418)", "test": "Dundee profiling"}, "[18]": {"test_system": "VEG-FR", "test": "Dundee profiling"}, "[19]": {"test_system": "AMPK (hum)", "test": "Dundee profiling"}, "[20]": {"molecular_target": "TTBK1 (Homo sapiens (Human), UniProt Q5TCY1)", "test": "Dundee profiling"}, "[21]": {"molecular_target": "PAK4 (Homo sapiens (Human), UniProt O96013)", "test": "Dundee profiling"}, "[22]": {"molecular_target": "MKK2 (Homo sapiens (Human), UniProt P36507)", "test": "Dundee profiling"}, "[23]": {"molecular_target": "CK1γ2 (Homo sapiens (Human), UniProt P78368)", "sequence (P78368 whole entry)": "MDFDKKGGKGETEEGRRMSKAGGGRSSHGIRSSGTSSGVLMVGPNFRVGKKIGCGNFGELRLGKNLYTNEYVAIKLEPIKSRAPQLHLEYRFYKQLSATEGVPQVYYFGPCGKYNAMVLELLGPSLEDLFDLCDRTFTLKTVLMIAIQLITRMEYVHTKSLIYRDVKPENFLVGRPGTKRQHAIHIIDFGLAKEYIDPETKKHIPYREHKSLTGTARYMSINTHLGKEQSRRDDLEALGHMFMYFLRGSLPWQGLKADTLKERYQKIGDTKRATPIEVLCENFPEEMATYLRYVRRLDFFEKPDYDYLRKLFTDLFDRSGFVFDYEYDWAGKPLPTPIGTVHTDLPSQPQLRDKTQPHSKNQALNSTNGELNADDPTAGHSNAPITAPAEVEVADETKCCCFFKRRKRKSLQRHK", "test": "Dundee profiling"}, "[24]": {"molecular_target": "MAP4K3 (Homo sapiens (Human), UniProt Q8IVH8)", "sequence (Q8IVH8 whole entry, species assumed)": "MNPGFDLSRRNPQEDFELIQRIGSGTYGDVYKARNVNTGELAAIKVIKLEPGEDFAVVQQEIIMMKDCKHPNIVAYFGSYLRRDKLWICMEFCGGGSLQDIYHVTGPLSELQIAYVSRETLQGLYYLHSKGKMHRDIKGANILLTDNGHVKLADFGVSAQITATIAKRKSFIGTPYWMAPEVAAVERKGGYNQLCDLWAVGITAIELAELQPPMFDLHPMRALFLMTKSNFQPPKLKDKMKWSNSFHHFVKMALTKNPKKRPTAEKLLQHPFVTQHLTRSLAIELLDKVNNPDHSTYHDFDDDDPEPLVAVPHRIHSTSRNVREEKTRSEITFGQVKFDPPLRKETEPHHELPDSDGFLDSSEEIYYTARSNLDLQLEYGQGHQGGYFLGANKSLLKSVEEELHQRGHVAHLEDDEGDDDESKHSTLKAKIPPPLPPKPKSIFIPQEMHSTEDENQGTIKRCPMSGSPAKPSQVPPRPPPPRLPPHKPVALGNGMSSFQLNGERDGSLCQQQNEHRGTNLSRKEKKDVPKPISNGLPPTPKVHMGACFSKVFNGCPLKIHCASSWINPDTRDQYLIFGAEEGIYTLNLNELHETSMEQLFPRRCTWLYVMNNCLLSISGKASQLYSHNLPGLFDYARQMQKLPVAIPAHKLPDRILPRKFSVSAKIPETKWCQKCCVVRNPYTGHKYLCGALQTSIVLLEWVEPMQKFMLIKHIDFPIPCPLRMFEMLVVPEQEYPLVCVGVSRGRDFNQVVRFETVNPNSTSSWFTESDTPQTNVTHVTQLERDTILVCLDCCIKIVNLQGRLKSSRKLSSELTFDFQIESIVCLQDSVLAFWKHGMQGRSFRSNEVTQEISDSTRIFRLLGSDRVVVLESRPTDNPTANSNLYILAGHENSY", "test": "Dundee profiling"}, "[25]": {"molecular_target": "MINK1 (Homo sapiens (Human), UniProt Q8N4C8)", "test": "Dundee profiling"}, "[26]": {"molecular_target": "PDK1 (Homo sapiens (Human), UniProt O15530)", "test": "Dundee profiling"}, "[27]": {"molecular_target": "SYK (Homo sapiens (Human), UniProt P43405)", "test": "Dundee profiling"}, "[28]": {"molecular_target": "YES1 (Homo sapiens (Human), UniProt P07947)", "sequence (P07947 whole entry, species assumed)": "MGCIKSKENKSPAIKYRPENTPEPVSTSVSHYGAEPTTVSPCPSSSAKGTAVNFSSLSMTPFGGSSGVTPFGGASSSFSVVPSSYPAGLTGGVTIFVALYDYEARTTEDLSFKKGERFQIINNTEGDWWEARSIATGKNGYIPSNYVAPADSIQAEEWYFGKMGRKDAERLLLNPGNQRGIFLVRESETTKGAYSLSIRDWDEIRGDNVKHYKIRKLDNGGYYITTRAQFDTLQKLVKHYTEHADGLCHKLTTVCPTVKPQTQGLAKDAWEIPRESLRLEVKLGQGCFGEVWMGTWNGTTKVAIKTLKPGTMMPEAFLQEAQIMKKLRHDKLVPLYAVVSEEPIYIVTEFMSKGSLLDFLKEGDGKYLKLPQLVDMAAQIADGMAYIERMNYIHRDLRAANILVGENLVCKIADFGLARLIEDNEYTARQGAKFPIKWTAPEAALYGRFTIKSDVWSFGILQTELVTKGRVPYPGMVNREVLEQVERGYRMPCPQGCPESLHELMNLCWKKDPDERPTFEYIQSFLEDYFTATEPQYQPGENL", "test": "Dundee profiling"}, "[29]": {"molecular_target": "MLK1 (Homo sapiens (Human), UniProt P80192)", "sequence (P80192 whole entry, looked up, species assumed)": "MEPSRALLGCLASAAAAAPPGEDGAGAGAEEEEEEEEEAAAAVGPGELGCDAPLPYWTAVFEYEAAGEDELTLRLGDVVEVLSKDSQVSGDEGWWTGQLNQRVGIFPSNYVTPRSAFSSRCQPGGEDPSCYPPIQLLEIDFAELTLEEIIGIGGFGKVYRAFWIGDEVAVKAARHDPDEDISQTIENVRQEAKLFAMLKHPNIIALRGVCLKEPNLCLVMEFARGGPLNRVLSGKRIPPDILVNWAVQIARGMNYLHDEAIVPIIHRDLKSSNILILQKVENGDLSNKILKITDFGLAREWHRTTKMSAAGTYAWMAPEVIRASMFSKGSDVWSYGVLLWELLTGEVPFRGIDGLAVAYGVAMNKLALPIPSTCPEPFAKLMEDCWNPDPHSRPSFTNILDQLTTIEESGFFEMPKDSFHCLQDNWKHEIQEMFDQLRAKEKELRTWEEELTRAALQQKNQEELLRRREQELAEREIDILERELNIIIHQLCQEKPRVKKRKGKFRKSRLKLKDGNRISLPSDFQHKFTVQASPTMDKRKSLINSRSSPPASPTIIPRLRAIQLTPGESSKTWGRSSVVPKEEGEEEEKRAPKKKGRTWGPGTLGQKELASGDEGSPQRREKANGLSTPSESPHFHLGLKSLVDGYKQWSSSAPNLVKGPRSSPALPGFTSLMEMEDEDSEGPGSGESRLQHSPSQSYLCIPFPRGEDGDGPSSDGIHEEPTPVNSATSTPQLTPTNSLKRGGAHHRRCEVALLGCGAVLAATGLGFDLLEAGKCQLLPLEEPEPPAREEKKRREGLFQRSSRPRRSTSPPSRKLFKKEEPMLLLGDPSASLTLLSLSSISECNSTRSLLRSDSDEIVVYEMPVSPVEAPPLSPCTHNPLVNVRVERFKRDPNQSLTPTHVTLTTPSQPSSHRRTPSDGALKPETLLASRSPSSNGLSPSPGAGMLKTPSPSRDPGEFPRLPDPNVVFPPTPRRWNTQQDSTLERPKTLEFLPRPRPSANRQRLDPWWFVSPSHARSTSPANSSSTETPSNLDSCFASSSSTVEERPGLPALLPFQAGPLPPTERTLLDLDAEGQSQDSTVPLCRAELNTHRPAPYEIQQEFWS", "test": "Dundee profiling"}, "[30]": {"molecular_target": "MNK2 (Homo sapiens (Human), UniProt Q9HBH9)", "test": "Dundee profiling"}, "[31]": {"molecular_target": "NUAK1 (Homo sapiens (Human), UniProt O60285)", "sequence (O60285 whole entry, species assumed)": "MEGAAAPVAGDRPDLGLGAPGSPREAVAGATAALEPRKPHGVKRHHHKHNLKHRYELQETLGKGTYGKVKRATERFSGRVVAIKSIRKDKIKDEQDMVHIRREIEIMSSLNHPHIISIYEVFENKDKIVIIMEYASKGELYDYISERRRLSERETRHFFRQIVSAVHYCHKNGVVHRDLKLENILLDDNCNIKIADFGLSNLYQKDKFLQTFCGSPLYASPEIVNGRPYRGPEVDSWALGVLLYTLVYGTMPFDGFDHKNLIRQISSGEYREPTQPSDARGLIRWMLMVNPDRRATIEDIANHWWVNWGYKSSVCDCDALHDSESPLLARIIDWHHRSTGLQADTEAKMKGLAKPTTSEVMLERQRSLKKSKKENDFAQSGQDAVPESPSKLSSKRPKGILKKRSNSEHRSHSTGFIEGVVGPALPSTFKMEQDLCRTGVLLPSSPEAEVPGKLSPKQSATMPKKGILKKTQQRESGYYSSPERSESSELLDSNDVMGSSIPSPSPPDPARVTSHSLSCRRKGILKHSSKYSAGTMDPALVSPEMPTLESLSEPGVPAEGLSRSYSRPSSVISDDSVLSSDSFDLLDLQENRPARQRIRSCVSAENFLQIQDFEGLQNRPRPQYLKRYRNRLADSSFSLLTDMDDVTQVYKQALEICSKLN", "test": "Dundee profiling"}, "[32]": {"molecular_target": "PLK1 (Homo sapiens (Human), UniProt P53350)", "test": "Dundee profiling"}, "[33]": {"molecular_target": "CLK2 (Homo sapiens (Human), UniProt P49760)", "test": "Dundee profiling"}, "[34]": {"conditions": "read-out: percent remaining enzymatic activity, I1, 1 μM"}, "[35]": {"conditions": "read-out: percent remaining enzymatic activity, I10"}, "[36]": {"conditions": "read-out: percent remaining enzymatic activity"}}, "note": "Read-outs that look alike come from different tables or passages of the source."}
{"compound": "CNc1nc(Nc2ccc(C(=O)N3CCOCC3)cc2OC)nc2[nH]cc(Cl)c12", "note": "[Compound 18, (4-((5-chloro-4-(methylamino)-7H-pyrrolo[2,3-d]pyrimidin-2-yl)amino)-3-methoxyphenyl)(morpholino)methanone]", "values": [{"measurement": "IC50", "setting": "[1]", "result": 6.6, "unit": "nM"}, {"measurement": "IC50", "setting": "[2]", "result": 47.7, "unit": "nM"}, {"measurement": "IC50", "setting": "[3]", "result": 19.8, "unit": "nM"}, {"measurement": "IC50", "setting": "[4]", "result": 2.2, "unit": "nM"}, {"measurement": "KinomeScan value", "setting": "[5]", "result": 100}, {"measurement": "KinomeScan value", "setting": "[6]", "result": 95}, {"measurement": "KinomeScan value", "setting": "[7]", "result": 100}, {"measurement": "KinomeScan value", "setting": "[8]", "result": 97}, {"measurement": "KinomeScan value", "setting": "[9]", "result": 82}, {"measurement": "KinomeScan value", "setting": "[10]", "result": 100}, {"measurement": "KinomeScan value", "setting": "[11]", "result": 86}, {"measurement": "KinomeScan value", "setting": "[12]", "result": 100}, {"measurement": "remaining activity at 1 µM", "setting": "[13]; [34]", "result": 113, "unit": "%"}, {"measurement": "remaining activity at 1 µM", "setting": "[13]; [35]", "result": 100, "unit": "%"}, {"measurement": "percent remaining enzymatic activity", "setting": "[14]; I1, 1 μM", "result": 112, "unit": "%"}, {"measurement": "percent remaining enzymatic activity", "setting": "[14]; I10", "result": 103, "unit": "%"}, {"measurement": "remaining activity at 1 µM", "setting": "[15]; [34]", "result": 107, "unit": "%"}, {"measurement": "remaining activity at 1 µM", "setting": "[15]; [35]", "result": 68, "unit": "%"}, {"measurement": "remaining activity at 1 µM", "setting": "[16]; [34]", "result": 105, "unit": "%"}, {"measurement": "remaining activity at 1 µM", "setting": "[16]; [35]", "result": 91, "unit": "%"}, {"measurement": "remaining activity at 1 µM", "setting": "[17]; [34]", "result": 105, "unit": "%"}, {"measurement": "remaining activity at 1 µM", "setting": "[17]; [35]", "result": 102, "unit": "%"}, {"measurement": "percent remaining enzymatic activity", "setting": "[18]; I1, 1 μM", "result": 104, "unit": "%"}, {"measurement": "percent remaining enzymatic activity", "setting": "[18]; I10", "result": 100, "unit": "%"}, {"measurement": "percent remaining enzymatic activity", "setting": "[19]; I1, 1 μM", "result": 104, "unit": "%"}, {"measurement": "percent remaining enzymatic activity", "setting": "[19]; I10", "result": 92, "unit": "%"}, {"measurement": "remaining activity at 1 µM", "setting": "[20]; [34]", "result": 103, "unit": "%"}, {"measurement": "remaining activity at 1 µM", "setting": "[20]; [35]", "result": 98, "unit": "%"}, {"measurement": "remaining activity at 1 µM", "setting": "[21]; [34]", "result": 102, "unit": "%"}, {"measurement": "remaining activity at 1 µM", "setting": "[21]; [35]", "result": 92, "unit": "%"}, {"measurement": "remaining activity at 1 µM", "setting": "[22]; [34]", "result": 101, "unit": "%"}, {"measurement": "remaining activity at 1 µM", "setting": "[22]; [35]", "result": 72, "unit": "%"}, {"measurement": "percent remaining enzymatic activity", "setting": "[23]; I10", "result": 45, "unit": "%"}, {"measurement": "remaining activity at 1 µM", "setting": "[23]; [36]", "result": 100, "unit": "%"}, {"measurement": "percent remaining enzymatic activity", "setting": "[24]; I10", "result": 41, "unit": "%"}, {"measurement": "remaining activity at 1 µM", "setting": "[24]; [36]", "result": 98, "unit": "%"}, {"measurement": "remaining activity at 1 µM", "setting": "[25]; [34]", "result": 95, "unit": "%"}, {"measurement": "remaining activity at 1 µM", "setting": "[25]; [35]", "result": 68, "unit": "%"}, {"measurement": "remaining activity at 1 µM", "setting": "[26]; [34]", "result": 91, "unit": "%"}, {"measurement": "remaining activity at 1 µM", "setting": "[26]; [35]", "result": 88, "unit": "%"}, {"measurement": "percent remaining enzymatic activity", "setting": "[27]; I10", "result": 81, "unit": "%"}, {"measurement": "remaining activity at 1 µM", "setting": "[27]; [36]", "result": 91, "unit": "%"}, {"measurement": "percent remaining enzymatic activity", "setting": "[28]; I10", "result": 85, "unit": "%"}, {"measurement": "remaining activity at 1 µM", "setting": "[28]; [36]", "result": 85, "unit": "%"}, {"measurement": "remaining activity at 1 µM", "setting": "[29]; [34]", "result": 81, "unit": "%"}, {"measurement": "remaining activity at 1 µM", "setting": "[29]; [35]", "result": 38, "unit": "%"}, {"measurement": "remaining activity at 1 µM", "setting": "[30]; [34]", "result": 75, "unit": "%"}, {"measurement": "remaining activity at 1 µM", "setting": "[30]; [35]", "result": 25, "unit": "%"}, {"measurement": "percent remaining enzymatic activity", "setting": "[31]; I10", "result": 17, "unit": "%"}, {"measurement": "remaining activity at 1 µM", "setting": "[31]; [36]", "result": 75, "unit": "%"}, {"measurement": "remaining activity at 1 µM", "setting": "[32]; [34]", "result": 62, "unit": "%"}, {"measurement": "remaining activity at 1 µM", "setting": "[32]; [35]", "result": 13, "unit": "%"}, {"measurement": "remaining activity at 1 µM", "setting": "[33]; [34]", "result": 13, "unit": "%"}, {"measurement": "remaining activity at 1 µM", "setting": "[33]; [35]", "result": 2, "unit": "%"}]}
